The source of these data is PubChem BioAssay AID1996.

Values after ≈ are worked out from the molar mass of the structure shown. Bounds are passed on as bounds.

For the data set the following is noted: buffer; pH 7.4; 200.0 µM.
Regarding `COc1ccc(S(=O)(=O)n2cccc2)c(OC)c1`, the solubility (kinetic) turned out to be 3.9 µg/mL (≈ 14.6 µM).
As for `Cc1onc(-c2ccccc2Cl)c1C(=O)N1CCN(C)CC1`, the figure is > 48 µg/mL.
Turning to `Cc1cccc(C)c1NC(=O)CNC(=O)c1cnccn1`, the kinetic solubility is > 42.6 µg/mL.
In the case of `O=C1/C(=C/c2ccccn2)SC(=S)N1CCc1ccccc1` it was 0.4 µg/mL (≈ 1.23 µM); in that of `COc1ccc(CNc2ccc3c(c2)CCC3)cc1Br`, 5.6 µg/mL (≈ 16.9 µM).
In the case of `CC1CC1C(=O)Nc1nc2ccc(S(C)(=O)=O)cc2s1` (stereo not drawn) it was > 46.6 µg/mL; in that of `Cc1ccc(CN(Cc2ccccc2)C(=S)Nc2ccccc2C)o1`, 1.5 µg/mL (≈ 4.28 µM); in that of `CN1C(=O)CSC1=Nc1ccc(F)cc1`, 28.7 µg/mL (≈ 128 µM).
As to `COc1ccccc1-c1cc(C(=O)N2CCOCC2)no1`, the kinetic solubility is > 43.2 µg/mL.
For `O=c1[nH]cnc2sc3c(c12)CCCCC3`, the solubility (kinetic) stood at 19.9 µg/mL (≈ 90.3 µM).
Consider `Cc1nnc(SCC(=O)NC23CC4CC(CC(C4)C2)C3)s1`, for which the solubility (kinetic) is > 48.5 µg/mL.
Consider `Cc1cccc(Nc2ncnc(N)c2[N+](=O)[O-])n1`, for which the kinetic solubility was > 36.9 µg/mL.
For `O=C(Cc1ccccc1)NCc1ccccn1`, the kinetic solubility is > 33.9 µg/mL.
For `FC(F)(F)c1ccc(NCc2ccccn2)nc1`, the kinetic solubility was > 38 µg/mL.
Molecule `CN1C(=O)c2cccc3c(S(=O)(=O)Nc4ccccc4F)ccc1c23` showed a solubility (kinetic) of 9.6 µg/mL (≈ 26.9 µM).
The molecule `Cc1cc2c(Nc3cccc(O)c3)ncnc2s1.Cl` showed a kinetic solubility of 41.7 µg/mL.
`CN(CC(=O)Nc1ccc(Cl)c(C(F)(F)F)c1)C(=O)COC(=O)C1CC2CCCC(C1)C2=O` (stereo not drawn) gave a kinetic solubility of 59.2 µg/mL (≈ 121 µM).
As for `CCCc1cc(=O)[nH]c(SCC(=O)N2CCC(C)CC2)n1`, the figure is > 46.4 µg/mL; as for `CC(=O)c1ccccc1OC(=O)COc1ccc([N+](=O)[O-])cc1`, > 47.3 µg/mL.
`Cc1ccc(S(=O)(=O)NCc2cn3ccccc3n2)c(C)c1`: the kinetic solubility was determined as 8.9 µg/mL (≈ 28.2 µM).
Regarding `Cc1cc(C(=O)NCCc2ccc(S(N)(=O)=O)cc2)c(C)o1`, the kinetic solubility is > 48.4 µg/mL.
As for `COc1ccc(/C=C/C(=O)NC(=S)N2CCOCC2)cc1`, the figure is > 46 µg/mL; as for `O=C(Cn1ccccc1=O)c1ccc(Cl)cc1`, 31.4 µg/mL (≈ 127 µM).
As for `CCN1C(=O)CCCc2ccccc21`, the figure is > 28.4 µg/mL.
Consider `Cc1ccc(OCCn2c(=S)[nH]c3ccccc32)c(C(C)C)c1`, for which the solubility (kinetic) was < 0.3 µg/mL.
As for `S=C(NCc1ccco1)NCc1ccccc1Cl`, the figure is > 42.1 µg/mL.
As for `COC(=O)c1sccc1NC(=O)c1ccc(Cl)cc1`, the figure is < 0.6 µg/mL; as for `NC(=O)c1ccccc1OCCOc1ccc(Br)cc1`, 5.1 µg/mL (≈ 15.2 µM).
In the case of `CN(CC(=O)Nc1cccc(C(F)(F)F)c1)Cc1ccccc1` it was 20.8 µg/mL (≈ 64.5 µM).
`Cc1c(C(=O)N(C)Cc2nc3ccccc3c(=O)[nH]2)oc2ccccc12`: the solubility (kinetic) worked out at 4.6 µg/mL (≈ 13.2 µM).
As for `O=S(=O)(Nc1ccc(Nc2ccccc2)cc1)c1ccc(F)cc1`, the figure is 3.5 µg/mL (≈ 10.2 µM).
`CN(CC(=O)N1CCCC1)S(=O)(=O)c1ccc2ccccc2c1`: the kinetic solubility is > 49.9 µg/mL.
In the case of `COc1ccc(OC)c(NC(=O)NCc2cccnc2)c1` it was > 43.1 µg/mL; in that of `COC(=O)CNC(=O)c1cc(-c2ccncc2)nc2ccc(C)cc12`, > 50.3 µg/mL; in that of `O=C(CCN1CCN(c2ccccc2F)CC1)Nc1ccc(F)cc1`, 10.4 µg/mL (≈ 30.1 µM).
`COC(=O)c1ccc(Cn2cc(/C=C\[N+](=O)[O-])c3ccccc32)o1` gave a kinetic solubility of 1.6 µg/mL (≈ 4.9 µM).
In turn, `CCCOC(=O)C1=C(C)NC(=O)NC1c1ccc(Br)s1` (stereo not drawn) showed a solubility (kinetic) of 3.1 µg/mL (≈ 8.63 µM).
For `Cc1[nH]c2ccccc2c1/C=N/NC(=O)CNC(=O)c1ccco1`, the kinetic solubility was > 48.7 µg/mL.
`CCC(CCC(=O)Nc1cccc([N+](=O)[O-])c1)C(=O)O` (stereo not drawn): the solubility (kinetic) was > 42 µg/mL.
As for `COc1ccc(Cn2c(C)nc3c(c(=O)c4ccccc4n3C)c2=O)cc1`, the figure is 0.7 µg/mL (≈ 1.94 µM); as for `CCn1c2ccccc2c2nc3cc(S(=O)(=O)N4CCOCC4)ccc3nc21`, 2.4 µg/mL (≈ 6.05 µM); as for `C#CC(C)(CC)NC(=O)c1cc2cccc(CC=C)c2oc1=O` (stereo not drawn), 0.8 µg/mL (≈ 2.59 µM).
As for `CN1CCN(CC(=O)Nc2c(C(=O)c3ccccc3)oc3ccccc23)CC1`, the figure is 48.4 µg/mL (≈ 128 µM).
As for `CN(C)CCNC(=O)C(=O)Nc1cc2c3c(c1)CCC(=O)N3CCC2`, the solubility (kinetic) was found to be 50.9 µg/mL (≈ 148 µM).
`COc1ccc(CNC(=O)Cc2c[nH]c3ccccc23)cc1OC` returned a kinetic solubility of 48.6 µg/mL (≈ 150 µM).
`Cc1ccc2c(c1)sc1nc(=O)n(-c3ccccc3)c(=O)n12` displayed a kinetic solubility of 2.3 µg/mL (≈ 7.43 µM).
As for `CN(C(=O)CSc1nc2ccc(Cl)cc2[nH]1)C1CCS(=O)(=O)C1` (stereo not drawn), the figure is > 56.1 µg/mL; as for `CS(=O)(=O)c1ccc(C(=O)OCC(=O)NC(=O)C2COc3ccccc3O2)cc1[N+](=O)[O-]` (stereo not drawn), 39.2 µg/mL (≈ 84.4 µM).
For the molecule `O=C(CSc1cccs1)Nc1ccc(Cl)cc1`, the solubility (kinetic) came out at 36.5 µg/mL (≈ 129 µM).
Molecule `CCCc1cc(=O)[nH]c(SCC(=O)Nc2ccc(OC)c(S(=O)(=O)N3CCCCC3)c2)n1` gave a kinetic solubility of 13.8 µg/mL (≈ 28.7 µM).
With `COc1cc2ccccc2cc1C(=O)N1CC(C)OC(C)C1` (stereo not drawn), the solubility (kinetic) was > 44.9 µg/mL.
In the case of `COc1ccc(C2=NOC(COc3ccc([N+](=O)[O-])cc3)C2)cc1` (stereo not drawn), the solubility (kinetic) is < 0.4 µg/mL.
For `O=C(c1ccc(-c2ccccc2)cc1)N1CCN(c2ccccc2F)CC1`, the kinetic solubility is 1.8 µg/mL (≈ 4.99 µM).
In the case of `Cc1ccc(C(=O)NCC(=O)Nc2ncccc2C)s1` it was > 43.4 µg/mL.
In the case of `COc1ccc(/C(N)=N/OC(=O)CC2CCCCC2)cc1` it was 2.8 µg/mL (≈ 9.64 µM); in that of `CCn1cc(C(=O)O)c(=O)c2cnc(N3CCN(C(=S)Nc4ccccc4)CC3)nc21`, 27.2 µg/mL (≈ 62 µM).
For `CC(C)c1cccc(C(C)C)c1NC(=S)Nc1cccc(Cl)c1`, the solubility (kinetic) was < 0.4 µg/mL.
In the case of `CC(=O)c1cn(CCOc2ccccc2C)c2ccccc12` it was < 0.6 µg/mL; in that of `O=C(O)CN1C(=O)c2ccc(Oc3ccc([N+](=O)[O-])cc3)cc2C1=O`, > 51.3 µg/mL.
The molecule `CCCCNC(=O)c1ccc2c(c1)N(C)C(=O)c1ccccc1S2` returned a solubility (kinetic) of 5.3 µg/mL (≈ 15.6 µM).
The molecule `Cc1ccc(NCCC(=O)c2cccs2)cc1C` had a solubility (kinetic) of 18.1 µg/mL (≈ 69.8 µM).
As for `O=C(OCC(=O)N1CCN(C(=O)c2ccco2)CC1)c1cc(F)c(F)cc1Cl`, the figure is > 61.9 µg/mL; as for `COCCNC(=O)C(OC(=O)c1ccco1)c1ccccc1F` (stereo not drawn), > 48.2 µg/mL; as for `C=CCOC(=O)C1=C(C)NC(=O)NC1c1ccc(OCC)cc1` (stereo not drawn), 7.4 µg/mL (≈ 23.4 µM).
As to `CCOCCCNC(=O)c1cc2c(=O)n(CC)c3ccccc3c2s1`, the kinetic solubility was determined as 4.8 µg/mL (≈ 13.4 µM).
As for `O=C(CSc1nc2ccccc2o1)NCC1CCCO1` (stereo not drawn), the figure is > 43.9 µg/mL.
In turn, `O=C(Nc1cccc2ccccc12)c1cccc([N+](=O)[O-])c1` displayed a solubility (kinetic) of 1.4 µg/mL (≈ 4.79 µM).
On to `O=C(COC(=O)C1=COCCO1)Nc1ccc(Cl)cn1`, for which the solubility (kinetic) is > 44.8 µg/mL.
`CCCn1c(=O)c2[nH]c(-c3ccc(S(=O)(=O)O)cc3)nc2n(CCC)c1=O`: the kinetic solubility is > 58.9 µg/mL.
As for `CC(=O)Nc1cc([As](=O)(O)O)ccc1O`, the figure is > 41.3 µg/mL; as for `CN(C)C(=O)CSc1ncccc1-c1nc2ccccc2[nH]1`, 42.6 µg/mL (≈ 136 µM).
Regarding `CC1CCN(C(=O)c2ccc(CNS(=O)(=O)c3ccc(C(C)(C)C)cc3)cc2)CC1`, the solubility (kinetic) worked out at 8.3 µg/mL (≈ 19.4 µM).
Regarding `COc1ccc(NC(=O)CCc2ccc(OC)c(OC)c2)cn1`, the kinetic solubility is > 47.5 µg/mL.

A word on the solubility (kinetic): it is the concentration staying in solution when a stock, usually in DMSO, is diluted into the medium.
